Source: patent US6376426B1, “Herbicidal 3-(heterocycl-1-yl)-uracils” (BASF Aktiengesellschaft, priority 1999, dated 2002)

What was measured:
Assay type in all cases: in vivo
Setaria viridis [1] = assay: Post-emergence herbicidal test, SETVI; design: key to herbicidal effect (0-9 scale) SETVI / herbicidal rating SETVI: A rating 0 indicates growth as untreated control; a rating 9 indicates death; details: POST, 0-9 scale, 21 days after spraying
Method: (§1) To evaluate their herbicidal activity, compounds according to the invention are tested using a representative range of plants:
(§2) […] After spraying, the plants are placed on greenhouse benches and are cared for in the usual manner, commensurate with conventional greenhouse practices.
(§3) The herbicidal effects of the test compounds are assessed visually twenty-one days after spraying the foliage and the soil and are recorded on a 0-9 scale. A rating 0 indicates growth as untreated control, a rating 9 indicates death. An increase of 1 unit on the linear scale approximates to a 10% increase in the level of effect.

Alopecurus myosuroides [2] = assay: Pre-emergence herbicidal test, ALOMY; design: key to herbicidal effect (0-9 scale) ALOMY / herbicidal rating ALOMY: A rating 0 indicates growth as untreated control; a rating 9 indicates death; details: for herbicidal rating ALOMY: PRE, 0-9 scale, 21 days after spraying
Method: as §1
(§4) The pre-emergence tests involve spraying a liquid formulation of the compound onto the soil in which the seeds of the plant species mentioned above has recently been sown.
(§5) The soil used in the tests is a prepared horticultural loam. The formulations used in the tests are prepared from solutions of the test compounds in acetone containing 0.4% by weight of an alkylphenol/ethylene oxide condensate available under the trade mark TRITON X-155. […] In these tests untreated sown soil are used as controls.
as §3

Abutilon theophrasti [3] = assay: Pre-emergence herbicidal test, ABUTH; design: key to herbicidal effect (0-9 scale) ABUTH / herbicidal rating ABUTH: A rating 0 indicates growth as untreated control; a rating 9 indicates death; details: PRE, 0-9 scale, 21 days after spraying
Method: as §1, §4, §5, §3

Glycine max [4] = assay: Pre-emergence herbicidal test, GLXMA; design: key to herbicidal effect (0-9 scale) GLXMA / herbicidal rating GLXMA: A rating 0 indicates growth as untreated control; a rating 9 indicates death; details: for herbicidal rating GLXMA: PRE, 0-9 scale, 21 days after spraying
Method: as §1, §4, §5, §3

[5] = tested on: representative range of plants; assay: Pre-emergence herbicidal test, summary over the plants tested; details: 100 g/ha
Method: as §1, §4, §5, §3

Glycine max [6] = assay: Post-emergence herbicidal test, GLXMA; design: key: A rating 0 indicates growth as untreated control; a rating 9 indicates death; details: 0-9 scale, 21 days after spraying
Method: as §1, §2, §3

Abutilon theophrasti [7] = assay: Post-emergence herbicidal test, ABUTH; design: key to herbicidal effect (0-9 scale) ABUTH / herbicidal rating ABUTH: A rating 0 indicates growth as untreated control; a rating 9 indicates death; details: POST, 0-9 scale, 21 days after spraying
Method: as §1, §2, §3

Galium aparine [8] = assay: Post-emergence herbicidal test, GALAP; design: key to herbicidal effect (0-9 scale) GALAP / herbicidal rating GALAP: A rating 0 indicates growth as untreated control; a rating 9 indicates death; details: POST, 0-9 scale, 21 days after spraying
Method: as §1, §2, §3

Alopecurus myosuroides [9] = assay: Post-emergence herbicidal test, ALOMY; design: key: A rating 0 indicates growth as untreated control; a rating 9 indicates death; details: 0-9 scale, 21 days after spraying
Method: as §1, §2, §3

Echinochloa crus-galli [10] = assay: Post-emergence herbicidal test, ECHCG; design: key: A rating 0 indicates growth as untreated control; a rating 9 indicates death; details: 0-9 scale, 21 days after spraying
Method: as §1, §2, §3

Ipomoea hederacea [11] = assay: Post-emergence herbicidal test, IPOHE; design: key to herbicidal effect (0-9 scale) IPOHE / herbicidal rating IPOHE: A rating 0 indicates growth as untreated control; a rating 9 indicates death; details: POST, 0-9 scale, 21 days after spraying
Method: as §1, §2, §3

[12] = tested on: representative range of plants; assay: Post-emergence herbicidal test, summary over the plants tested
Method: as §1, §2, §3

Matricaria inodora [13] = assay: Pre-emergence herbicidal test, MATIN; design: key to herbicidal effect (0-9 scale) MATIN / herbicidal rating MATIN: A rating 0 indicates growth as untreated control; a rating 9 indicates death; details: PRE, 0-9 scale, 21 days after spraying
Method: as §1, §4, §5, §3

Matricaria inodora [14] = assay: Post-emergence herbicidal test, MATIN; design: key to herbicidal effect (0-9 scale) MATIN / herbicidal rating MATIN: A rating 0 indicates growth as untreated control; a rating 9 indicates death; details: POST, 0-9 scale, 21 days after spraying
Method: as §1, §2, §3

Stellaria media [15] = assay: Post-emergence herbicidal test, STEME; design: key to herbicidal effect (0-9 scale) STEME / herbicidal rating STEME: A rating 0 indicates growth as untreated control; a rating 9 indicates death; details: POST, 0-9 scale, 21 days after spraying
Method: as §1, §2, §3

Ipomoea hederacea [16] = assay: Pre-emergence herbicidal test, IPOHE; design: key: A rating 0 indicates growth as untreated control; a rating 9 indicates death; details: 0-9 scale, 21 days after spraying
Method: as §1, §4, §5, §3

[17] = tested on: representative range of plants; assay: Herbicidal activity, pre- and post-emergence, overall; details: both in pre- and post-emergence
Method: as §1, §4
The soil used in the tests is a prepared horticultural loam. The formulations used in the tests are prepared from solutions of the test compounds in acetone containing 0.4% by weight of an alkylphenol/ethylene oxide condensate available under the trade mark TRITON X-155. These acetone solutions are diluted with water and the resulting formulations applied at dosage levels corresponding to 1000 g and 250 g/ha of active material per hectare in a volume equivalent to 900 litres per hectare. In these tests untreated sown soil are used as controls.
These acetone solutions are diluted with water and the resulting formulations applied at dosage levels equivalent to about 1000, 800, 400, 250 or 100 g/ha per hectare of test compound per pot. After spraying, the plants are placed on greenhouse benches and are cared for in the usual manner, commensurate with conventional greenhouse practices.
as §3

Stellaria media [18] = assay: Pre-emergence herbicidal test, STEME; design: key to herbicidal effect (0-9 scale) STEME / herbicidal rating STEME: A rating 0 indicates growth as untreated control; a rating 9 indicates death; details: PRE, 0-9 scale, 21 days after spraying
Method: as §1, §4, §5, §3

Setaria viridis [19] = assay: Pre-emergence herbicidal test, SETVI; design: key to herbicidal effect (0-9 scale) SETVI / herbicidal rating SETVI: A rating 0 indicates growth as untreated control; a rating 9 indicates death; details: PRE, 0-9 scale, 21 days after spraying
Method: as §1, §4, §5, §3

Echinochloa crus-galli [20] = assay: Pre-emergence herbicidal test, ECHCG; design: key: A rating 0 indicates growth as untreated control; a rating 9 indicates death; details: 0-9 scale, 21 days after spraying
Method: as §1, §4, §5, §3

Zea mays [21] = assay: Post-emergence herbicidal test, ZEAMX; design: key: A rating 0 indicates growth as untreated control; a rating 9 indicates death; details: 0-9 scale, 21 days after spraying
Method: as §1, §2, §3

Galium aparine [22] = assay: Pre-emergence herbicidal test, GALAP; design: key to herbicidal effect (0-9 scale) GALAP / herbicidal rating GALAP: A rating 0 indicates growth as untreated control; a rating 9 indicates death; details: PRE, 0-9 scale, 21 days after spraying
Method: as §1, §4, §5, §3

Zea mays [23] = assay: Pre-emergence herbicidal test, ZEAMX; design: key to herbicidal effect (0-9 scale) ZEAMX / herbicidal rating ZEAMX: A rating 0 indicates growth as untreated control; a rating 9 indicates death; details: for herbicidal rating ZEAMX: PRE, 0-9 scale, 21 days after spraying
Method: as §1, §4, §5, §3

SMILES: Cn1c(C(F)(F)F)cc(=O)n(-n2ncc3c(Cl)cccc32)c1=O [Example 168, 3-(4-Chloro-1-indazol-1-yl)-1-methyl-6trifluoromethylpyrimidine-2,4-dione]
- herbicidal rating SETVI (Setaria viridis [1]; 12.5 g/ha): 6
- herbicidal rating SETVI (Setaria viridis [1]; 25 g/ha): 7
- herbicidal rating SETVI (Setaria viridis [1]; 100 g/ha): 9
- herbicidal rating ALOMY (Alopecurus myosuroides [2]; 12.5 g/ha): 0
- herbicidal rating ALOMY (Alopecurus myosuroides [2]; 25 g/ha): 0
- herbicidal rating ALOMY (Alopecurus myosuroides [2]; 100 g/ha): 2
- control of Alopecurus (Alopecurus myosuroides [2]; pre-emergence, 100 g/ha): well controlled
- herbicidal rating ABUTH (Abutilon theophrasti [3]; 12.5 g/ha): 9
- herbicidal rating ABUTH (Abutilon theophrasti [3]; 25 g/ha): 9
- herbicidal rating ABUTH (Abutilon theophrasti [3]; 100 g/ha): 9
- herbicidal rating GLXMA (Glycine max [4]; 12.5 g/ha): 0
- herbicidal rating GLXMA (Glycine max [4]; 25 g/ha): 0
- herbicidal rating GLXMA (Glycine max [4]; 100 g/ha): 0
- selectivity in soy beans (Glycine max [4]; pre-emergence, 100 g/ha): Surprisingly good selectivity
- control of the weeds [5]: four out of five broadleaf weeds were well controlled
- herbicidal rating GLXMA (Glycine max [6]; 12.5 g/ha): 5
- herbicidal rating GLXMA (Glycine max [6]; 25 g/ha): 6
- herbicidal rating GLXMA (Glycine max [6]; 100 g/ha): 9
- herbicidal rating ABUTH (Abutilon theophrasti [7]; 12.5 g/ha): 9
- herbicidal rating ABUTH (Abutilon theophrasti [7]; 25 g/ha): 9
- herbicidal rating ABUTH (Abutilon theophrasti [7]; 100 g/ha): 9
- herbicidal rating GALAP (Galium aparine [8]; 12.5 g/ha): 9
- herbicidal rating GALAP (Galium aparine [8]; 25 g/ha): 9
- herbicidal rating GALAP (Galium aparine [8]; 100 g/ha): 9
- herbicidal rating ALOMY (Alopecurus myosuroides [9]; 12.5 g/ha): 0
- herbicidal rating ALOMY (Alopecurus myosuroides [9]; 25 g/ha): 1
- herbicidal rating ALOMY (Alopecurus myosuroides [9]; 100 g/ha): 3
- herbicidal rating ECHCG (Echinochloa crus-galli [10]; 12.5 g/ha): 0
- herbicidal rating ECHCG (Echinochloa crus-galli [10]; 25 g/ha): 2
- herbicidal rating ECHCG (Echinochloa crus-galli [10]; 100 g/ha): 8
- herbicidal rating IPOHE (Ipomoea hederacea [11]; 12.5 g/ha): 9
- herbicidal rating IPOHE (Ipomoea hederacea [11]; 25 g/ha): 9
- herbicidal rating IPOHE (Ipomoea hederacea [11]; 100 g/ha): 9
- control of broadleaf weeds ([12]; 12.5 g/ha): all broadleaf weeds were still well controlled
- control of the weeds ([12]; 100 g/ha): good cross spectrum control on both broadleaf weeds and grasses except Alopecurus and Echinochloa
- herbicidal rating MATIN (Matricaria inodora [13]; 12.5 g/ha): 8
- herbicidal rating MATIN (Matricaria inodora [13]; 25 g/ha): 8
- herbicidal rating MATIN (Matricaria inodora [13]; 100 g/ha): 9
- herbicidal rating MATIN (Matricaria inodora [14]; 12.5 g/ha): 8
- herbicidal rating MATIN (Matricaria inodora [14]; 25 g/ha): 9
- herbicidal rating MATIN (Matricaria inodora [14]; 100 g/ha): 9
- herbicidal rating STEME (Stellaria media [15]; 12.5 g/ha): 7
- herbicidal rating STEME (Stellaria media [15]; 25 g/ha): 7
- herbicidal rating STEME (Stellaria media [15]; 100 g/ha): 9
- herbicidal rating IPOHE (Ipomoea hederacea [16]; 12.5 g/ha): 0
- herbicidal rating IPOHE (Ipomoea hederacea [16]; 25 g/ha): 3
- herbicidal rating IPOHE (Ipomoea hederacea [16]; 100 g/ha): 7
- herbicidal performance [17]: good performance
- herbicidal rating STEME (Stellaria media [18]; 12.5 g/ha): 1
- herbicidal rating STEME (Stellaria media [18]; 25 g/ha): 3
- herbicidal rating STEME (Stellaria media [18]; 100 g/ha): 9
- herbicidal rating SETVI (Setaria viridis [19]; 12.5 g/ha): 2
- herbicidal rating SETVI (Setaria viridis [19]; 25 g/ha): 5
- herbicidal rating SETVI (Setaria viridis [19]; 100 g/ha): 9
- herbicidal rating ECHCG (Echinochloa crus-galli [20]; 12.5 g/ha): 0
- herbicidal rating ECHCG (Echinochloa crus-galli [20]; 25 g/ha): 1
- herbicidal rating ECHCG (Echinochloa crus-galli [20]; 100 g/ha): 6
- herbicidal rating ZEAMX (Zea mays [21]; 12.5 g/ha): 0
- herbicidal rating ZEAMX (Zea mays [21]; 25 g/ha): 1
- herbicidal rating ZEAMX (Zea mays [21]; 100 g/ha): 3
- herbicidal rating GALAP (Galium aparine [22]; 12.5 g/ha): 3
- herbicidal rating GALAP (Galium aparine [22]; 25 g/ha): 6
- herbicidal rating GALAP (Galium aparine [22]; 100 g/ha): 9
- herbicidal rating ZEAMX (Zea mays [23]; 12.5 g/ha): 0
- herbicidal rating ZEAMX (Zea mays [23]; 25 g/ha): 0
- herbicidal rating ZEAMX (Zea mays [23]; 100 g/ha): 1
- selectivity in maize (Zea mays [23]; pre-emergence, 100 g/ha): Surprisingly good selectivity
